Here are results for 41 molecules from patent publication US20200375958A1, “MEMBRANE ACTIVE MOLECULES” (priority 2017, published 2020).

One data set has as its system mouse. To be noted: intravenous; for Effect on the animals: 62.5 mM solution in intralipid. The protocol:
Butyric acid was dissolved in water to form an 8 M solution. 0.5 mL of the 8 M solution of butyric acid was injected subcutaneously (at the back of the neck) into the mouse.
3-hydroxybutyric acid was dissolved in water to form 1 M, 1.5 M, and 2 M solutions. 0.2 mL of a 1.5 M solution of 3-hydroxybutyric acid was injected into a tail vein of a CD-1 mouse. […] This was repeated for at least 2 more times on subsequent days.
Ethylmalonic acid was dissolved in water to form 2 M, 3 M, and 4 M solutions. 0.2 mL of a 3 M solution of ethylmalonic acid was injected into a tail vein of a mouse. […] This was repeated for at least 2 more times on subsequent days.
Ethylmalonic acid was dissolved in water to form a 4 M solution. 0.5 mL of the 4 M solution of ethylmalonic acid was injected subcutaneously into the mouse.

For the next data set, the system named is Tadpoles. The data set is described as follows: Tadpole anesthesia test (movement suppressed on contact with rod). It counts as in vivo. On the procedure:
Tadpoles were placed in a petri dish containing aquarium water. Four to eight tadpoles were placed in each petri dish. The aquarium water contained the specified test compound at the listed concentration. When the tadpoles stopped moving, a plastic rod was used to elicit motion once again by contact between the rod and tadpole. […] From this and the number of subjects, the percent of tadpoles in which movement was suppressed were calculated.
After 1 to 30 minutes, they were again contacted with a rod to ensure the anesthetic effect had worn off.
In some examples, subanesthetic concentrations of ethanol were added into the aquarium water. Tadpoles in which movement was prevented with exposure to a test compound and ethanol but not with exposure to a test compound alone were classified as partial anesthetics.

Setting [1] is: read-out: Movement suppressed (%).
Setting [2] is: Concentration 62.5 mM in aquarium water.

Read-outs that look alike come from different tables or passages of the source.

In the case of `CCOC(=O)C(CC)(C(=O)OCC)c1ccccc1` [diethyl ethylphenylmalonate], the “Effect on the animals” value with mouse was “lethargic and those loss coordination”. Moreover, the “Lethality to the animals” value with mouse (250 mM solution in intralipid) and in the data set on mouse (1M solution in intralipid) was “lethal” each time.
Take `O=C(O)CCCCC(=O)O` [Adipic acid, Hexanedioic acid]: the responders at 50000 µM with Tadpoles (setting [1]) was found to be 0%.
As to `O=C(O)Cc1c[nH]c2ccccc12` [Indole-3-acetic acid, 2-(1H-indol-3-yl)acetic acid], in the data set with Tadpoles (setting [1]), the responders at 12500 µM was 0%.
With `CC(=O)CCCC(=O)O` [4-Acetylbutyric acid, 5-Oxohexanoic acid], in the data set with Tadpoles (setting [1]), the responders at 25000 µM turned out to be 0%.
On to `C[C@@H](O)CC(=O)O` [R-3-hydroxybutyric acid, (R)-3 -Hydroxybutanoic acid], for which, in the data set on Tadpoles (setting [1]), the responders at 100000 µM was found to be 0%, the responders at 200000 µM came out at 0%, the responders at 250000 µM was 0% and the responders at 300000 µM was 0%. For the same molecule, in the data set on Tadpoles (setting [1]), the responders at 350000 µM was determined as 0%, the responders at 400000 µM turned out to be 46% and the responders at 500000 µM stood at 100%.
For `O=C(O)C(O)c1ccccc1` (stereo not drawn) [Mandelic acid, 2-Hydroxy-2-phenylacetic acid], in the data set with Tadpoles (setting [1]), the responders at 250000 µM came to 0%, the responders at 300000 µM was determined as 100% and the responders at 500000 µM was found to be 100%.
For the molecule `N[C@@H](CO)C(=O)O` [L-Serine, Serine], in the data set on Tadpoles (setting [1]), the responders at 114000 µM turned out to be 0%.
In the case of `CC(C)CCC(=O)O` [4-Methylvaleric acid], in the data set with Tadpoles (setting [1]), the responders at 20000 µM was 0%.
Take `CC(C)(C)CC(=O)O` [3,3-Dimethylbutyric acid, 3,3-Dimethylbutanoicacid]: the responders at 25000 µM in the data set on Tadpoles (setting [1]) turned out to be 100%.
Consider Guanidine, for which the results for the “Movement suppressed (%)” value in the data set with Tadpoles (setting [2]) and with Tadpoles (Concentration (mM) 62.5 + 150 EtOH) were 0% and 100%, respectively.
For `O=C(O)c1cc(O)c2ccccc2n1` [Kynurenic acid, 4-hydroxyquinoline-2-carboxylic acid], the responders at 12500 µM in the data set with Tadpoles (setting [1]) was found to be 0%.
Turning to `CCC(O)C(=O)O` (stereo not drawn) [2-Hydroxybutyric acid, 2-hydroxybutyric acid], the responders at 125000 µM with Tadpoles (setting [1]) was found to be 0%.
With `CC(C)(C(=O)O)C(=O)O` [Dimethylmalonic acid], in the data set on Tadpoles (setting [1]), the responders at 125000 µM stood at 60% and the responders at 250000 µM came to 60%.
On to ethyl isovaleric acid, for which the “Effect on the animals” value in the data set with mouse was “lethargic and those loss coordination”.
As to `O=C(O)C(=O)Cc1ccccc1` [Phenylpyruvic acid, 2-Oxo-3-phenylpropanoic acid], in the data set on Tadpoles (setting [1]), the responders at 62500 µM came out at 100% and the responders at 125000 µM amounted to 100%.
With `CCC(C)CC(=O)O` (stereo not drawn) [3-Methylvaleric acid, 3-Methylpentanoic acid], in the data set with Tadpoles (setting [1]), the responders at 20000 µM stood at 25%.
In the case of `Cc1cccc(C(=O)NCC(=O)O)c1` [3-Methylhippuric acid, (3-Methylbenzoyl)glycine], the responders at 3125 µM with Tadpoles (setting [1]) was 0%.
In the case of `C[C@H](O)CC(=O)O` [S-3-hydroxybutyric acid, (S)-3-Hydroxybutanoic acid], in the data set with Tadpoles (setting [1]), the responders at 100000 µM is 0%, the responders at 200000 µM stood at 0%, the responders at 250000 µM was found to be 14% and the responders at 300000 µM is 17%. In the data set on Tadpoles (setting [1]), the responders at 350000 µM is 50%, the responders at 400000 µM amounted to 92% and the responders at 500000 µM came to 100%.
As for `CCOC(=O)C(CC)C(=O)OCC` [diethyl ethyl malonate, Diethyl ethyl malonate], the “Effect on the animals” value in the data set on mouse was “lethargic and those loss coordination”.
With `CC(C)C(C(=O)O)C(=O)O` [Isopropyl malonic acid, 2-isopropylmalonic acid], in the data set with Tadpoles (setting [1]), the responders at 1600 µM is 0%, the responders at 6250 µM was 0% and the responders at 25000 µM worked out at 50%.
Glycine: the “Movement suppressed (%)” value in the data set on Tadpoles (Concentration (mM) 250 + 150 EtOH) was found to be 100%.
On to `Cc1ccc(C(=O)NCC(=O)O)cc1` [4-Methylhippuric acid, (4-Methylbenzoyl)glycine], for which, in the data set with Tadpoles (setting [1]), the responders at 50000 µM turned out to be 0% and the responders at 150000 µM was 0%.
For `O=C(O)CCCCCCC(=O)O` [Suberic acid, Octanedioic acid], the responders at 10000 µM with Tadpoles (setting [1]) came to 50%.
Turning to Tartaric acid [L-Tartaric acid], the results for the “Movement suppressed (%)” value in the data set with Tadpoles (Concentration 50 mM in aquarium water) and in the data set on Tadpoles (Concentration (mM) 50 + 150 EtOH) were 0% and 100%, respectively.
With `CCOC(=O)[C@@H](O)c1ccccc1` [ethyl (S)-(+)-mandelate], the “Effect on the animals” value in the data set on mouse is “lethargic and those loss coordination”. The “Lethality to the animals” value in the data set with mouse (250 mM solution in intralipid) and with mouse (1M solution in intralipid) was “lethal” throughout.
As for Fumaric acid, the “Movement suppressed (%)” value in the data set on Tadpoles (Concentration 25 mM in aquarium water) was determined as 40%; with Tadpoles (Concentration (mM) 25 + 150 EtOH) it was 80%.
As to `CC(C)[C@H](N)C(=O)O` [L-valine, Valine], in the data set on Tadpoles (setting [1]), the responders at 7800 µM turned out to be 0%, the responders at 31000 µM stood at 0%, the responders at 125000 µM stood at 0% and the responders at 500000 µM came out at 40%.
Take `CC(C)(O)CC(=O)O` [3-Hydroxy-3-methylbutyric acid, 3-Hydroxy-3-methylbutanoic acid]: in the data set on Tadpoles (setting [1]), the responders at 1600 µM came out at 0%, the responders at 6250 µM amounted to 0%, the responders at 25000 µM came out at 0% and the responders at 100000 µM came to 100%.
Take `CC[C@H](C)[C@H](N)C(=O)O` [Isoleucine]: the responders at 25000 µM in the data set with Tadpoles (setting [1]) worked out at 0%.
With `CCC(C)C(=O)C(=O)O` (stereo not drawn) [3-Methyl-2-oxovaleric acid, 3-Methyl-2-oxopentanoic acid], in the data set on Tadpoles (setting [1]), the responders at 250000 µM turned out to be 33%.
On to `N[C@@H](Cc1c[nH]c2ccccc12)C(=O)O` [Tryptophan], for which the responders at 12500 µM in the data set on Tadpoles (setting [1]) is 0%.
Take `O=C(O)CCCC(=O)O` [Glutaric acid]: in the data set with Tadpoles (setting [1]), the responders at 7800 µM is 0%, the responders at 31000 µM came out at 0% and the responders at 125000 µM came out at 0%.
Turning to `NC(=O)C[C@H](N)C(=O)O` [L-Asparagine, Asparagine], the responders at 100000 µM in the data set with Tadpoles (setting [1]) was 0%.
Take Succinic acid: the “Movement suppressed (%)” value in the data set with Tadpoles (setting [2]) was found to be 0%; in the data set on Tadpoles (Concentration (mM) 62.5 + 200 EtOH), 66%.
As to `CCO` [Ethanol control, Ethanol, reference compound], in the data set on Tadpoles (setting [1]), the responders at 100000 µM amounted to 0%, the responders at 150000 µM amounted to 0%, the responders at 200000 µM was 0% and the responders at 250000 µM turned out to be 33%.
Turning to `CCCC(=O)OCC` [ethyl butyrate], in the data set on mouse, the “Effect on the animals” value is “lethargic and those loss coordination”. For the same molecule, the “Lethality to the animals” value with mouse (250 mM solution in intralipid) and with mouse (1M solution in intralipid) was “lethal” each time.
In the case of `O=C(O)c1ccc2ccccc2n1` [Quinaldic acid, Quinoline-2-carboxylic acid], the responders at 25000 µM in the data set on Tadpoles (setting [1]) was determined as 16%.
Take `O=C(O)[C@@H]1CCCN1` [Proline]: in the data set on Tadpoles (setting [1]), the responders at 103000 µM was 0%.
`N=C(N)NCCC[C@H](N)C(=O)O` [Arginine]: the responders at 46500 µM with Tadpoles (setting [1]) is 0%.
Consider `NC(=O)CC[C@H](N)C(=O)O` [Glutamine], for which, in the data set on Tadpoles (setting [1]), the responders at 25000 µM stood at 0%, the responders at 50000 µM was determined as 100% and the responders at 100000 µM is 100%.
Turning to `O=C(NC(O)C(=O)O)c1ccccc1` (stereo not drawn) [Alpha-Hydroxyhippuric acid, 2-Benzamido-2-hydroxyacetic acid], in the data set with Tadpoles (setting [1]), the responders at 5000 µM turned out to be 33% and the responders at 10000 µM was 100%.
